Biological target: T1, alpha-amylase (Homo sapiens, UniProt P0DUB6)
T1 sequence (P0DUB6 16-511): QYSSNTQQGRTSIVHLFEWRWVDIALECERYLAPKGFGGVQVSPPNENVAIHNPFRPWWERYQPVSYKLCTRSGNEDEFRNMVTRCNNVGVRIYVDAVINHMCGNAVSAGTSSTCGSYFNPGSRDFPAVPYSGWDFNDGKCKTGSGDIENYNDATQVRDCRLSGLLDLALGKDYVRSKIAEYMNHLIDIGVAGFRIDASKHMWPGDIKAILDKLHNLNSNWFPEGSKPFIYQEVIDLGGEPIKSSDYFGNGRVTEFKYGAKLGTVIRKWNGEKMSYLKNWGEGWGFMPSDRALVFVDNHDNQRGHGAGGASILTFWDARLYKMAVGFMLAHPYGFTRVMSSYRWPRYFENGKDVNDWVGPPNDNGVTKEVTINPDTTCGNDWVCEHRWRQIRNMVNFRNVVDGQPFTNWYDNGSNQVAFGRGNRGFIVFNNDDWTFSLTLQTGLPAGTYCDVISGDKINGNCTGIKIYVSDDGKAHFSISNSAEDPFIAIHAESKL
Assay: In vitro inhibition of alpha-amylase (colorimetric, starch to maltose)
Format: biochemical
Conditions: read-out: Inhibitory Activity Alpha-amylase
Method: The methods for determining enzyme activities are conventional colorimetric methods.
The principle is as follows: • starch is incubated with an enzyme (for example human salivary amylase).

inhibition at 1000 µg/mL: 93%
Compound: C[C@H]1O[C@H](O[C@H]2[C@H](O)[C@@H](O)[C@@H](O[C@H]3[C@H](O)[C@@H](O)C(O)O[C@@H]3CO)O[C@@H]2CO)[C@H](O)[C@@H](O)[C@@H]1N[C@H]1C=C(CO)[C@@H](O)[C@H](O)[C@H]1O (stereo partly shown) [Glucor ™, Acarbose]

Source: US20140199410A1, “EDIBLE BROWN ALGAE EXTRACT WITH A LOW IODINE CONTENT” (ALGUES ET MER, priority 2011, published 2014)
